Ends that are not written are not given here.
Key:
Bacillus subtilis = format: cell-based

Sequence | effect on Bacillus subtilis in time kill assay (Bacillus subtilis) | detergent-like (lytic) activity (sheep red blood cells)
RFARKGALRQKNV [Protein kinase C] | no effect | –
TRKKLFHIFHATIRSR [PAD-1.17, TRKKLFHIFHATIRSR] | – | did not appear to act as a detergent
